In experiment [1] the test system is CD274 (PD-L1) on B16 cells. Put plainly: Inhibitory activity against CD274 (PD-L1) on B16 cells. In kind it is cell-based. The conditions noted are these: FIG. 61.
The subject of experiment [2] is spleen lymphocytes. The experiment in a line: Immunostimulatory effects on spleen lymphocytes, cytokines in supernatant by ELISA. Type of experiment: cell-based, BALB/c or C57BL/6 mouse. The conditions noted are these: FIG. 59 and FIG. 60; compared with JQ1 plus SZU-101. How it is done: Effect Example 1: Detection of the Immunostimulatory Effects of the SZU-Series Small-Molecule Immune Agonists and Novel Immune Targeted Compounds of the Present Invention on Spleen Lymphocytes
1. Extraction of Spleen Lymphocytes
(1) BALB/c or C57BL/6 mouse spleens were collected, ground in a small dish containing Mouse Lymphocyte Separation Medium, and filtered through a filter membrane (with a pore size of […]) to obtain a cell suspension, which was treated by centrifugation to obtain lymphocytes. The isolated lymphocytes were placed in a 15 mL centrifuge tube, into which 10 mL of 1640 complete medium was added. The mixture was mixed uniformly and centrifuged at 250 g for 10 minutes. The supernatant was discarded.
(2) The cells were re-suspended with 1 mL of erythrocyte lysate. After 1 minute of lysis, 4 mL of 1640 complete medium was added for termination. The tube was centrifuged at 1,000 rpm for 5 minutes. The supernatant was discarded.
(3) The cells were re-suspended with 2 mL of 1640 complete medium, counted, and then seeded into 24-well plates at a density of 1×10^6 cells per well.
2. Preparation of the Samples
The spleen lymphocytes seeded into the 24-well plates were stimulated with different concentrations of the SZU-series small-molecule immune agonists and novel immune targeted compounds. The 24-well plate was transferred into an incubator. […]

For `COCCOc1nc(N)c2nc(O)n(Cc3ccc(CNC(=O)CCC(=O)NCCOCCOCCOCCNC(=O)C[C@@H]4N=C(c5ccc(Cl)cc5)c5c(sc(C)c5C)-n5c(C)nnc54)cc3)c2n1` [SZU-119], the “inhibitory activity against CD274 (PD-L1) on B16 cells” value in experiment [1] is recorded as “retains the inhibitory activity of JQ1”. For the same compound, in experiment [2], the “activity of TLR7 agonist for stimulating immune cytokine” value was “retains the activity of TLR7 agonist”.

Values taken from US12281117B2, “Small molecule immune agonists and immune targeting compounds and application thereof” (SHENZHEN UNIVERSITY, priority 2018, dated 2025).
